The results in this text go back to patent publication US20200289521A1, “USE OF VITAMIN K IN COMBINATION WITH ANTICOAGULANTS” (KAYDENCE PHARMA AS, priority 2019, published 2020).

Holding throughout (type): cell-based
Experiment [1] has as its system VSMCs. The experiment can be described thus: Oxidative stress in VSMCs (DCFDA to DCF fluorescence). The settings on record: 10 μM, fluorescence measured for 6 hours. The method, then:
It is known that the level of reactive oxygen species in cells can be measured by measuring the conversion of 2′,7′-dichlorofluorescein diacetate (DCFDA) to the fluorescent dye 2′,7′-dichlorofluorescein (DCF). The fluorescence generated by cells subjected to DCFDA is directly proportional to the amount of oxidized DCFDA to DCF.
To perform the study, VSMCs (10,000 cells/well) were plated in a 96-well plate and left to adhere overnight. Next, cells were incubated for 1 hour with 20 μM DCFDA. The medium was then changed to medium supplemented with 10 μM vitamin K2 (MK-7). To visualize intracellular oxidative stress, fluorescence was measured for 6 hours and fluorescence intensity was normalized for cell count.

Experiment [2] relates to VSMCs. The experiment can be described thus: ATP increase in VSMCs, 24 hours (luminescence). The settings on record: 10 μM. The method, then:
This study was performed to determine if vitamin K2 (MK-7) affects ATP generation. ATP is generated via glycolysis in the cytoplasm and via both the Krebs-cycle and oxidative phosphorylation in the mitochondria. ATP generation via glycolysis delivers only 2 ATP, whereas ATP generation in the mitochondria generates some 32 ATP.
(§1) To perform this study, VSCMs (5000 cells/well) were plated in 96-well plates and left to adhere overnight. Next, cells were incubated for 24 hours with either vehicle, vitamin K2 (MK-7) (10 μM), or UQ10 (10 μM). Hoechst was added to correct for cell number (1 μg/mL). Next, ATP was measured using mammalian lysis buffer for 5 minutes after which 50 μL ATP substrate solution was added to the wells and incubated for 10 minutes in a dark environment. Finally, the medium was transferred to a white plate to measure luminescence

The subject of experiment [3] is VSMCs. The experiment can be described thus: Hypoxia (CoCl2) induced oxidative stress in VSMCs (DCFDA). The following applies: 50 μM CoCl2 for 19 hours; test substance 10 μM; 6 hours. On the procedure: This study was performed to determine whether intracellular oxidative stress in VSCMs is derived from mitochondrial dysfunction. To perform this study, VSMCs were incubated with cobalt chloride, a known stabilizer of HIF1a. Cobalt chloride binding to HIF1a prevents the degradation of HIF1a and thus results in a cellular hypoxia state. HIF1a has been implicated in cancer biology as well as a number of other pathophysiologies, specifically in areas of vascularization and angiogenesis, energy metabolism, cell survival, and tumor invasion. Under normal circumstances, after injury, HIF1a is degraded by the enzyme prolyl hydroxylase (PHD). The continued up-regulation of HIF1a (mimicked by cobalt chloride) promotes tumor growth and metastasis through its role in initiating angiogenesis and regulating cellular metabolism to overcome hypoxia. Hypoxia promotes apoptosis in both normal and tumor cells. Additionally, hypoxia generates significant intracellular oxidative stress.
To perform the study, VSMCs (10,000 cells/well) were plated in a 96-well plate and left to adhere overnight. Next, the medium was changed to a medium supplemented with 50 μM CoCl2 for 19 hours. The next day, cells were washed and incubated for 1 hour with 20 μM DCFDA in the presence of a vehicle (solvent for CoCl2 and vitamin K2 (MK-7)/UQ10), 10 μM vitamin K2 (MK-7), or 10 μM UQ10 in medium. The medium was then changed to a medium supplemented with vehicle, vitamin K2 (MK-7)/UQ10, or CoCl2, and fluorescent was measured for 6 hours. Fluorescence intensity was normalized for cell count.

Experiment [4] has as its system VSMCs. Description: ATP increase in VSMCs, 48 hours, with CoCl2 arm (luminescence). On the procedure:
as §1, with “This study was performed to further investigate the origin of ATP production that is influenced by vitamin K2 (MK-7). To” for “To”, “for 48” for “for 24”, “vehicle, CoCl2 (100 μM),” for “vehicle,”, “5 minutes,” for “5 minutes”, “Finally,” for “Finally, the”, “measure luminescence.” for “measure luminescence”

The subject of experiment [5] is VSMCs. Description: ATP over time in VSMCs with vitamin K2 (luminescence). The following applies: 10 μM, indicated time points. On the procedure:
To perform this study, first, VSCMs (5000 cells/well) were plated in 96-well plates and left to adhere overnight. Next, cells were incubated for indicated time points with vitamin K2 (MK-7) (10 μM). Hoechst was added to correct for cell number (1 μg/mL). Next, ATP was measured using mammalian lysis buffer for 5 minutes, after which 50 μL ATP substrate solution was added to the wells and incubated for 10 minutes in a dark environment. Finally, medium was transferred to a white plate to measure luminescence.

In the case of `CC(C)=CCC/C(C)=C/CC/C(C)=C/CC/C(C)=C/CC/C(C)=C/CC/C(C)=C/CC/C(C)=C/CC1=C(C)C(=O)c2ccccc2C1=O` [vitamin K2 (MK-7)], the “oxidative stress (DCF fluorescence normalized for cell count)” value in the experiment on VSMCs [1] is “clearly reduced the oxidative stress”. The “ATP production compared to the vehicle” value in the experiment with VSMCs [2] is given as “increased ATP production in VSMCs significantly (p=0.014)”. In addition, the “hypoxia induced oxidative stress” value in the experiment on VSMCs [3] is “seems to counteract hypoxia induced oxidative stress”. The “ATP levels compared to CoCl2” value with VSMCs [4] (10 μM vs CoCl2 100 μM) is given as “significant higher ATP levels”. In the experiment on VSMCs [4] (CoCl2 100 μM, vitamin K2 (MK-7) 10 μM), the “ATP production compared to vehicle” value is “increased ATP production slightly, though significant”. Further, the “ATP production over time” value in the experiment with VSMCs [5] is listed as “stimulated ATP production”.
